The values that follow come from PubChem BioAssay (NCI).

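Test compounds were applied to cells in 96-well plates for 48 hours at 5 doses. TGI denotes the concentration required for complete inhibition of growth.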

Common to all, as to test: growth of human tumour cells (NCI), 48 h
Assay [1] concerns A498 renal.
Assay [2] has as its system A549 NSCLC.
The test system of assay [3] is COLO 205 colon.
Assay [4] has as its system EKVX NSCLC.
Assay [5] has as its system HCC-2998 colon.
The test system of assay [6] is HCT-116 colon.
Assay [7] concerns HCT-15 colon.
Assay [8] has as its system HL-60(TB) leukemia.
The test system of assay [9] is NCI-H226 lung.
Assay [10] deals with OVCAR-5 ovarian.
Assay [11] has as its system OVCAR-8 ovarian.
Assay [12] relates to PC-3 prostate.
Assay [13] relates to SN12C renal.
The test system of assay [14] is SR leukemia.
The subject of assay [15] is U251 CNS.
The subject of assay [16] is UACC-257 melanoma.

`CCOC(=O)CCC(NC(=O)c1ccc(Nc2nc3ccccc3nc2-c2cccs2)cc1)C(=O)OCC` (stereo not drawn): the TGI in assay [1], in [2], in [3], in [4], in assay [5] and in assay [6] was above 100 µM throughout. The TGI in assay [7], in assay [8], in assay [9], in assay [10], in assay [11] and in [12] was above 100 µM in each case. Further, the TGI in [13], in assay [14], in assay [15] and in assay [16] was above 100 µM each time.

With `COC(=O)C1(Cc2ccccc2)Cc2ccc3c(c2C1=O)CCC3` (stereo not drawn), the TGI in assay [1] is above 89.8 µM; in assay [2], above 100 µM; in [3] it was above 62.5 µM; in assay [4], above 75.2 µM; in assay [5], above 100 µM; in assay [6], above 100 µM. The TGI is above 100 µM in assay [7]; above 63.3 µM in assay [8]; above 100 µM in [9]; above 100 µM in assay [10]; above 100 µM in [11]; above 100 µM in [12]. Also, the TGI in assay [13] was above 100 µM; in [14], above 73.4 µM; in assay [15], above 100 µM; in assay [16], 99.1 µM.

With `O=c1oc2ccc3ccccc3c2cc1-c1nc2ccccc2o1`, the TGI in assay [1] was above 77.5 µM; in assay [2] it was above 55.2 µM; in assay [3] it was above 100 µM; in [4], above 56.2 µM; in assay [5], above 100 µM; in assay [6], above 53.6 µM. Further, the TGI was above 100 µM in assay [7]; above 100 µM in [8]; above 63.6 µM in assay [9]; above 100 µM in assay [10]; 51.2 µM in assay [11]; above 74.9 µM in assay [12]. The TGI in assay [13] is above 64.1 µM; in [14], above 85.6 µM; in assay [15] it was 53.1 µM; in [16], 99.2 µM.

For `O=S(CCCl)c1c2ccccc2nc2ccccc12` (stereo not drawn), the TGI in assay [1], in assay [2], in [3], in [4], in [5] and in assay [6] was above 100 µM throughout. The TGI in assay [7], in [8], in [9], in assay [10], in assay [11] and in assay [12] was above 100 µM throughout. Also, the TGI in [13] is 88.7 µM; in assay [14], above 100 µM; in [15], above 100 µM; in [16], above 100 µM.

As for `CCOP(=O)(C=C=C(C)C)OCC`, the TGI in [1], in assay [2], in assay [3], in assay [4], in assay [5] and in [6] was above 100 µM throughout. The TGI in assay [7], in [8], in [9], in assay [10], in [11] and in assay [12] was above 100 µM each time. The TGI in assay [13], in assay [14], in assay [15] and in assay [16] was above 100 µM in each case.

With `COc1ccc2[nH]c3c(c2c1)COc1ccccc1C3=O`, the TGI in [1], in [2], in assay [3], in [4], in assay [5] and in assay [6] was above 100 µM in each case. Further, the TGI in assay [7], in assay [8], in assay [9], in assay [10], in assay [11] and in [12] was above 100 µM throughout. In addition, the TGI in [13], in [14], in [15] and in assay [16] was above 100 µM each time.

Take `O=[N+]([O-])O.[Ga]`: the TGI is 2590 µM in assay [1]; above 10000 µM in [2]; above 9550 µM in assay [3]; 5620 µM in assay [4]; above 5620 µM in assay [5]; above 10000 µM in assay [6]. For the same molecule, the TGI in assay [7] was 5780 µM; in [8], 1780 µM; in assay [9], 9510 µM; in [10], 5070 µM; in assay [11], above 7940 µM; in assay [12] it was above 10000 µM. Also, the TGI is 6890 µM in [13], above 10000 µM in assay [14], 4930 µM in assay [15] and above 10000 µM in assay [16].

Regarding `N#CC1=C(N)OC(c2ccc([N+](=O)[O-])cc2)C1(C#N)C#N` (stereo not drawn), the TGI was 27.8 µM in assay [1]; above 93.3 µM in [2]; 16.6 µM in assay [3]; 39.6 µM in assay [4]; 23.5 µM in assay [5]; 34.8 µM in [6]. Also, the TGI in [7] is 27.4 µM; in [8] it was 7.84 µM; in assay [9], 41.5 µM; in assay [10], 41.8 µM; in assay [11], 32.3 µM; in [12], 34.7 µM. Moreover, the TGI in assay [13] was 32.2 µM; in assay [14] it was 41.7 µM; in [15] it was above 78.2 µM; in [16] it was 26.5 µM.

Take `CN(C1=NCCO1)c1cccc2c1CCCC2`: the TGI in assay [1] is 9.35 µM; in assay [2], above 10 µM; in assay [3], 3.4 µM; in [4], above 10 µM; in [5], above 10 µM; in assay [6], 8.95 µM. In addition, the TGI was above 10 µM in assay [7]; above 10 µM in [8]; 6.14 µM in assay [9]; above 10 µM in [10]; above 10 µM in [11]; 8.53 µM in assay [12]. Also, the TGI in [13], in assay [14], in assay [15] and in assay [16] was above 10 µM each time.

Turning to `CCOC(=O)CCC(NC(=O)c1ccc(OCc2nc3ccccc3n3cccc23)cc1)C(=O)OCC` (stereo not drawn), the TGI in assay [1], in assay [2], in [3], in [4], in assay [5] and in assay [6] was above 100 µM throughout. The TGI in assay [7], in assay [8], in [9], in assay [10], in assay [11] and in assay [12] was above 100 µM in each case. For the same molecule, the TGI in assay [13], in assay [14], in [15] and in assay [16] was above 100 µM each time.

With `CN(C)c1ccc(/C=C(\NC(=O)c2ccccc2)C2NC(Cc3c[nH]c4ccccc34)C(=O)O2)cc1` (stereo not drawn), the TGI is above 100 µM in assay [1]; above 100 µM in assay [2]; above 39.3 µM in assay [3]; above 100 µM in assay [4]; above 100 µM in [5]; above 100 µM in assay [6]. The TGI in assay [7] was above 93.5 µM; in [8], 39.9 µM; in assay [9] it was above 100 µM; in assay [10], above 100 µM; in assay [11], above 100 µM; in assay [12], above 100 µM. The TGI in [13], in assay [14], in assay [15] and in assay [16] was above 100 µM in each case.

Take `CCN(CC)CCCNc1nc2ccccc2c2[nH]c3ccc(OC)cc3c12`: the TGI in assay [1] was 5.27 µM; in [2], 3.37 µM; in assay [3], 2.59 µM; in assay [4], 3.31 µM; in assay [5] it was 2.33 µM; in assay [6] it was 1.95 µM. For the same molecule, the TGI in [7] worked out at 3.05 µM; in assay [8] it was 3.02 µM; in [9] it was 9.83 µM; in assay [10], 3.18 µM; in [11], 2.41 µM; in assay [12] it was 2.73 µM. Moreover, the TGI is 7.1 µM in assay [13], 5.95 µM in [14], 3.23 µM in [15] and 3.2 µM in [16].

Consider `COc1ccccc1Cn1nc(OC)c2cc([N+](=O)[O-])ccc21`, for which the TGI is 60.3 µM in assay [1]; above 100 µM in assay [2]; above 100 µM in [3]; above 73.6 µM in assay [4]; above 100 µM in assay [5]; above 100 µM in assay [6]. The TGI in assay [7], in [8], in assay [9], in assay [10], in [11] and in assay [12] was above 100 µM each time. The TGI in [13] was above 100 µM; in assay [14], above 100 µM; in assay [15], 29 µM; in [16], above 100 µM.

Take `O=C1C=C(NCCc2cc(Br)c(O)c(Br)c2)C(=O)c2ncccc21`: the TGI in [1] came out at 6.78 µM; in assay [2] it was 4.79 µM; in assay [3], 3.25 µM; in [4], 22 µM; in [5], 18.5 µM; in assay [6] it was 11.8 µM. For the same molecule, the TGI in assay [7] was found to be 18.2 µM; in assay [8], 16.1 µM; in assay [9], 3.72 µM; in assay [10], 3.95 µM; in assay [11], 27.3 µM; in assay [12] it was 27.1 µM. Further, the TGI came out at 2.95 µM in assay [13], 7.31 µM in assay [14], 20 µM in assay [15] and 2.92 µM in assay [16].

Regarding `COc1cccc(N2C(=O)CSC2c2cc(OC)c(OC)c(OC)c2)c1` (stereo not drawn), the TGI was above 100 µM in [1]; above 100 µM in [2]; 76.8 µM in [3]; above 100 µM in assay [4]; 85.2 µM in assay [5]; above 100 µM in assay [6]. The TGI was above 100 µM in [7]; 98 µM in [8]; 87.2 µM in assay [9]; above 100 µM in assay [10]; above 100 µM in assay [11]; above 100 µM in [12]. Moreover, the TGI in assay [13], in assay [14], in assay [15] and in assay [16] was above 100 µM each time.

Take `c1ccc2c(c1)Nc1nc3nonc3nc1N2`: the TGI in assay [1], in assay [2], in assay [3], in assay [4], in assay [5] and in [6] was above 100 µM in each case. The TGI in assay [7], in assay [8], in assay [9], in assay [10], in [11] and in assay [12] was above 100 µM throughout. In addition, the TGI in [13], in assay [14], in [15] and in [16] was above 100 µM throughout.

As to `N/N=C1\CCCc2c1no[n+]2[O-]`, the TGI in [1], in assay [2], in [3], in [4], in [5] and in [6] was above 100 µM each time. The TGI in [7], in assay [8], in assay [9], in assay [10], in assay [11] and in assay [12] was above 100 µM in each case. Further, the TGI in [13], in assay [14], in [15] and in assay [16] was above 100 µM each time.

Consider `CC(C)NC(=O)OCc1c(COC(=O)NC(C)C)n(C)c2c1ccc1ccccc12`, for which the TGI in [1] was 3.01 µM; in [2] it was 23.5 µM; in assay [3], 3.83 µM; in [4], 10.4 µM; in assay [5], 9.86 µM; in assay [6], 2.82 µM. In addition, the TGI turned out to be 3.09 µM in assay [7]; 22.4 µM in assay [8]; 5.43 µM in [9]; 7.43 µM in assay [10]; 4.5 µM in assay [11]; 17.1 µM in assay [12]. Besides, the TGI in assay [13] was 5.3 µM; in [14], above 100 µM; in assay [15], 4.24 µM; in [16], 2.99 µM.
